Our source for the IC50 and inhibition values is US8722930B2, “Protease inhibitors” (Orion Corporation, priority 2009, dated 2014).

Molecules are shown by their SMILES.

Assay type in all cases: biochemical
Assay [1] concerns the target T1, Purified recombinant matriptase (Homo sapiens, UniProt Q9Y5Y6).
T1 sequence (Q9Y5Y6 1-855): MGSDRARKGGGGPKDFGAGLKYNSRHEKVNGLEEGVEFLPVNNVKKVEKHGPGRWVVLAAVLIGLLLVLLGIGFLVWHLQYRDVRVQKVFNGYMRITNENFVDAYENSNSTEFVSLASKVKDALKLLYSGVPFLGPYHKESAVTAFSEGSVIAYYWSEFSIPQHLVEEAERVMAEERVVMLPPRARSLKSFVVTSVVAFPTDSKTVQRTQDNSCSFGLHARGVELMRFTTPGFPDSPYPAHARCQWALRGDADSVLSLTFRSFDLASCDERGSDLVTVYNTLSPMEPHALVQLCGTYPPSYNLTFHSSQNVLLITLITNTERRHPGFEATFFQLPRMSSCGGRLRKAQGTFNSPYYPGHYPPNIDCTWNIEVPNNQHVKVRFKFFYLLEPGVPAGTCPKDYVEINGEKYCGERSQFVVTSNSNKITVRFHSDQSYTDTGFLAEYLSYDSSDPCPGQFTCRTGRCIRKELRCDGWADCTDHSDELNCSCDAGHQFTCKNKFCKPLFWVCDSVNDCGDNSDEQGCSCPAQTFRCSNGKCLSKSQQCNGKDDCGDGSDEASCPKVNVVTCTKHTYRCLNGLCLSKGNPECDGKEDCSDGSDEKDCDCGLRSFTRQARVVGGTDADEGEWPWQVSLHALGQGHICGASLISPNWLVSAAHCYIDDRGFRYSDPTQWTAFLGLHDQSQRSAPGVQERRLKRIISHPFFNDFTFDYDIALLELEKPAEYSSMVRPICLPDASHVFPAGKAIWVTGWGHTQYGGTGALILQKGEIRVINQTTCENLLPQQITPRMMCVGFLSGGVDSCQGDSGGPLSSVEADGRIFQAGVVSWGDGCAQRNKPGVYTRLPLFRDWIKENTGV
Kind of assay: Matriptase fluorescence-based enzymatic assay (Boc-Gln-Ala-Arg-AMC cleavage). The settings on record: Table 1; read-out: Matriptase Inhibition IC50. From the text:
(§1) Purified recombinant matriptase was used in a fluorescence-based screening assay using Gln-Ala-Arg peptide as a substrate. In this assay the cleavage of AMC from Boc-Gln-Ala-Arg-7-amido-4 methylcoumarin hydrochloride (Boc-Gln-Ala-Arg-AMC) (Sigma, USA) was monitored by measuring the increase in fluorescence intensity of AMC released upon proteolytic cleavage at 480 nm (kex=360 nm). Similarly, enzymatic assays in fluorimetric or colorimetric format for uPA, Factor Xa, thrombin, plasmin and trypsin (Sigma, USA) were established using substrates pyroGlu-Gly-Arg-pNA.HCl, Boc-Gln-Ala-Arg-AMC, CH3OCO-D-CHA-Gly-Arg-PNA.AcoH, Pyro Glu-Phe-Lys—pNA.HCl and Boc-Gln-Ala-Arg-AMC, respectively.

A further assay concerns the target T2, thrombin (Homo sapiens, UniProt P00734).
T2 construct: uPA, Factor Xa, thrombin, plasmin and trypsin (Sigma, USA); purchased Sigma, USA
The experiment in a line: Thrombin enzymatic assay (selectivity screening).
Text: as §1

The target in a further assay is T3, uPA (Homo sapiens, UniProt P00749).
T3 construct: purchased Sigma, USA
Kind of assay: uPA enzymatic assay (selectivity screening).
Text: as §1

The target in a further assay is T4, plasmin (Homo sapiens, UniProt P00747).
T4 construct: uPA, Factor Xa, thrombin, plasmin and trypsin (Sigma, USA); purchased Sigma, USA
T4 sequence (P00747 581-810 limits assumed, species assumed): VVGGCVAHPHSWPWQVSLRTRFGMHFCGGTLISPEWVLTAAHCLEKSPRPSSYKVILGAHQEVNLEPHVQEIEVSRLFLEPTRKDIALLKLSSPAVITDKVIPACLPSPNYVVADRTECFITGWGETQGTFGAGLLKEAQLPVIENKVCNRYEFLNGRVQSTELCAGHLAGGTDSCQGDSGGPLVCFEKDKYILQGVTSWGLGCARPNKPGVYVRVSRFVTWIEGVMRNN
T4 sequence (P00747 97-580 partner limits assumed, species assumed): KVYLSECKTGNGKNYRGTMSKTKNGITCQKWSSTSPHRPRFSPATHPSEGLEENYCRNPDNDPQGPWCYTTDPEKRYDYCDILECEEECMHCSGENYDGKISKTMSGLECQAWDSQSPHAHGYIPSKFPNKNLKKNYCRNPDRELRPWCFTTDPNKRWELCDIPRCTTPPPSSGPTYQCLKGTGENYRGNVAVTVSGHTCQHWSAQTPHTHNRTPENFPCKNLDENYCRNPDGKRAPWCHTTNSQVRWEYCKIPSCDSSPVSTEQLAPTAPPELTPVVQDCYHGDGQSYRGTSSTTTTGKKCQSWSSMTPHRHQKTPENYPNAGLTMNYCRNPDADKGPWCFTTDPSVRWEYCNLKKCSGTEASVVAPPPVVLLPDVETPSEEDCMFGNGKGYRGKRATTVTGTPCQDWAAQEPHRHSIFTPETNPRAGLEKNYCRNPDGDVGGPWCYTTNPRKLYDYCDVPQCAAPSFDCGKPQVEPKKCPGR
The experiment in a line: Plasmin enzymatic assay (selectivity screening).
Text: as §1

For the next assay, the target named is T5, Factor Xa (Homo sapiens, UniProt P00742).
T5 construct: uPA, Factor Xa, thrombin, plasmin and trypsin (Sigma, USA); purchased Sigma, USA
T5 sequence (P00742 235-488 limits assumed): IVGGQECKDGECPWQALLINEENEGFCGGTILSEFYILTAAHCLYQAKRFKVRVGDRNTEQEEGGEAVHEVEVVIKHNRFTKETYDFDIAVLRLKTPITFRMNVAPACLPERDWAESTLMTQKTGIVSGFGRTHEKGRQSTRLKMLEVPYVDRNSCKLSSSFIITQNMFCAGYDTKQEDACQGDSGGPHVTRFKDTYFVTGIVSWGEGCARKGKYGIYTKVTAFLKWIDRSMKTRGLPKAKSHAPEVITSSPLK
T5 sequence (P00742 41-179 partner limits assumed): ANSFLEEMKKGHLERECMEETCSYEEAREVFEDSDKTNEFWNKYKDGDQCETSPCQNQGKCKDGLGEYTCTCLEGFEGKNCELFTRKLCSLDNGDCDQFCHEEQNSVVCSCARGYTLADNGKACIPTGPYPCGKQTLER
Kind of assay: Factor Xa enzymatic assay (selectivity screening).
Text: as §1

A word on the IC50: it is the concentration needed to halve the response being measured. Usually inhibition stands for the change of the read-out against control, counted positive when it falls. Consider `N=C(N)c1ccc(COc2cc(Oc3ccc(C(=N)N)cc3)cc(C(=O)NC3CCC(N)CC3)c2)cc1` (stereo not drawn) [Example 43, N-(4-Aminocyclohexyl)-3-(4-carbamimidoylbenzyloxy)-5-(4-carbamimidoylphenoxy)benzamide], for which the IC50 in assay [1] worked out at 16 nM. For the same compound, the inhibition at 5 µM came to 45% against thrombin, 7% on uPA, 33% at plasmin and 76% on Factor Xa.
`N=C(N)c1cccc(COc2cc(OCc3cccc(C(=N)N)c3)cc(C(=O)NC3CCC(N)CC3)c2)c1` (stereo not drawn) [Example 77, N-(4-Aminocyclohexyl)-3,5-bis-(3-carbamimidoyl Benzyloxy)benzamide]: the IC50 in assay [1] was found to be 5 nM. Moreover, the inhibition at 5 µM amounted to 76% against thrombin, 11% at uPA, 22% on plasmin and 96% at Factor Xa.
The corresponding values for `N=C(N)c1ccc(Oc2cc(Oc3ccc(C(=N)N)cc3Cl)cc(C(=O)NC3CCC(N)CC3)c2)cc1` (stereo not drawn) [Example 69, N-(4-Aminocyclohexyl)-3-(4-carbamimidoyl-2-chlorophenoxy)-5-(4-carbamimidoylphenoxy)benzamide] are 18.9 nM, 26%, 9%, 22% and 81%.
For `N=C(N)c1ccc(Oc2cc(OCc3ccc(CN)cc3)cc(C(=O)NC3CCC(N)CC3)c2)cc1` (stereo not drawn) [Example 45, N-(4-Aminocyclohexyl)-3-(4-aminomethylbenzyloxy)-5-(4-carbamimidoylphenoxy)benzamide], in that order: 48 nM, -12%, 6%, 21% and 47%.
For `N=C(N)c1ccc(Oc2cc(Oc3ccc(C(=N)N)cc3)cc(C(=O)N3CCN(CCN)CC3)c2)cc1` [Example 31, 2-{4-[3,5-Bis-(4-carbamimidoyl-phenoxy)-benzoyl]-piperazin-1-yl}-ethylamine], in that order: 88 nM, 61%, 5%, 40% and 94%.
Turning to `N=C(N)c1ccc(Oc2cc(OCc3cccc(C(=N)N)c3)cc(C(=O)NC3CCC(N)CC3)c2)cc1` (stereo not drawn) [Example 42, N-(4-Aminocyclohexyl)-3-(3-carbamimidoylbenzyloxy)-5-(4-carbamimidoylphenoxy)benzamide], in assay [1], the IC50 came out at 10 nM. Moreover, the inhibition at 5 µM at thrombin turned out to be 36%; against uPA, 11%; against plasmin it was 30%; against Factor Xa, 93%.
